# Experimental data: patent publication US20090062395A1, “RENIN INHIBITORS FOR THE TREATMENT OF HYPERTENSION” (priority 2006, published 2009)
# Experiments:
# patients [1] = experiment: Long-term study, placebo-controlled randomized withdrawal period from month 11 (visit 10); type: in vivo, human; conditions: for Mean change (SD) from Month 11 (Visit 10) in msDBP / Mean change (SD) from Month 11 (Visit 10) in msSBP: continued aliskiren monotherapy 150 or 300 mg
# Description: Persistence of effect was examined after a long-term study in which patients were treated for approximately 1 year. Patients were randomly assigned to aliskiren at either 150 mg or 300 mg a day. Aliskiren was increased to 300 mg in those patients who had not responded to 150 mg. Starting at the end of treatment month 2 and 3, investigators adjusted individual therapy in order to achieve a goal BP of <140/90 mm Hg. Subsequent upward dose titration required that BP exceed 140/90 for two consecutive visits. No downward titration of aliskiren was permitted.
# At month 11 (visit 10), patients who had been maintained on aliskiren monotherapy entered a placebo-controlled randomized withdrawal study to confirm continued efficacy. Eligible patients were stratified based on dose and randomized in a 1:1 ratio to either continue their current treatment of aliskiren monotherapy (aliskiren 150 mg or aliskiren 300 mg) or be switched to placebo in a double-blind fashion.
# The potential for a rebound effect on BP with abrupt treatment withdrawal was evaluated.
# Rebound was defined as a rise of >5 mm Hg for diastolic and >10 mm for systolic was used and the results are presented separately.
# patients [2] = experiment: Abrupt withdrawal of aliskiren after eight weeks of treatment, compared with placebo (FIG. 3); type: in vivo, human
# Description: In another study, the potential for rebound hypertension following abrupt withdrawal of aliskiren treatment was evaluated in those patients who completed eight weeks of treatment compared to patients that were given a placebo only. The tested doses were 150, 300 and 600 mg of aliskiren.
# [3] = End point: Month 11 + 28 days or last visit carried forward
# [4] = Visit 11, Month 11 + 7 Days, randomized withdrawal ITT population
smiles,measurement,setting,value
"COCCCOc1cc(C[C@@H](C[C@H](N)[C@@H](O)C[C@H](C(=O)NCC(C)(C)C(N)=O)C(C)C)C(C)C)ccc1OC [aliskiren, 2(S),4(S),5(S),7(S)—N-(3-amino-2,2-dimethyl-3-oxopropyl)-2,7-di(1-methylethyl)-4-hydroxy-5-amino-8-[4-methoxy-3-(3-methoxy-propoxy)phenyl]-octanamide]",Mean change (SD) from Month 11 (Visit 10) in msDBP,patients [1]; [3],1.2 (6.9) mm Hg
same,Mean change (SD) from Month 11 (Visit 10) in msSBP,patients [1]; [3],1.7 (10.1) mm Hg
same,Mean change (SD) from Month 11 (Visit 10) in msDBP,patients [1]; [4],0.3 (6.8) mm Hg
same,Mean change (SD) from Month 11 (Visit 10) in msSBP,patients [1]; [4],1.3 (10.3) mm Hg
same,Mean change (SD) from Month 11 (Visit 10) in msDBP,"patients [1]; Visit 12, Month 11 + 14 Days",0.3 (6.8) mm Hg
same,Mean change (SD) from Month 11 (Visit 10) in msSBP,"patients [1]; Visit 12, Month 11 + 14 Days",0.3 (10.4) mm Hg
same,Mean change (SD) from Month 11 (Visit 10) in msDBP,"patients [1]; Visit 13, Month 11 + 21 Days",0.4 (6.7) mm Hg
same,Mean change (SD) from Month 11 (Visit 10) in msSBP,"patients [1]; Visit 13, Month 11 + 21 Days",0.5 (10.6) mm Hg
same,Mean change (SD) from Month 11 (Visit 10) in msDBP,"patients [1]; Visit 14, Month 11 + 28 Days",1.1 (6.8) mm Hg
same,Mean change (SD) from Month 11 (Visit 10) in msSBP,"patients [1]; Visit 14, Month 11 + 28 Days",1.8 (10.1) mm Hg
same,Persistence of blood pressure lowering effect after withdrawal,patients [1]; patients switched to placebo at month 11 after aliskiren 150 or 300 mg monotherapy,a persistence of a blood pressure lowering effect was observed for several weeks after withdrawal
same,Rebound effect on BP with abrupt treatment withdrawal,patients [1]; rebound defined as rise of >5 mm Hg diastolic and >10 mm systolic,no sign of rebound
same,Patients with msDBP and msSBP values remaining below baseline,"patients [2]; 4 days and 2 weeks after drug withdrawal, aliskiren 150 mg, 300 mg and 600 mg groups versus placebo group","more patients in the aliskiren 150 mg, 300 mg, and 600 mg groups had msDBP and msSBP values that remained below baseline compared with the placebo group"
same,Persistence of the antihypertensive effect following withdrawal,"patients [2]; after eight weeks of aliskiren 150, 300 or 600 mg, study period of two weeks",a good persistence of the antihypertensive effect
same,Rebound hypertension following abrupt withdrawal,"patients [2]; after eight weeks of aliskiren 150, 300 or 600 mg, two weeks after withdrawal",no signs of rebound hypertension
same,BP after withdrawal of study drug versus placebo group,"patients [2]; aliskiren 150, 300 and 600 mg for eight weeks, throughout the drug withdrawal period",values still remained lower than those in the placebo group
